Measured values as given in patent US20050009840A1 (SUGEN, INC., priority 2003, published 2005).

These compounds were tested against T1, HGFR (Homo sapiens, UniProt P08581) (assay: HGFR continuous-coupled spectrophotometric assay). Settings: at 1 pM; Table 6, library procedure 41; read-out: % Inhibition (percent c-MET inhibition).
T1 construct: purchased Upstate 14-526
T1 sequence (P08581 974-1390 limits assumed): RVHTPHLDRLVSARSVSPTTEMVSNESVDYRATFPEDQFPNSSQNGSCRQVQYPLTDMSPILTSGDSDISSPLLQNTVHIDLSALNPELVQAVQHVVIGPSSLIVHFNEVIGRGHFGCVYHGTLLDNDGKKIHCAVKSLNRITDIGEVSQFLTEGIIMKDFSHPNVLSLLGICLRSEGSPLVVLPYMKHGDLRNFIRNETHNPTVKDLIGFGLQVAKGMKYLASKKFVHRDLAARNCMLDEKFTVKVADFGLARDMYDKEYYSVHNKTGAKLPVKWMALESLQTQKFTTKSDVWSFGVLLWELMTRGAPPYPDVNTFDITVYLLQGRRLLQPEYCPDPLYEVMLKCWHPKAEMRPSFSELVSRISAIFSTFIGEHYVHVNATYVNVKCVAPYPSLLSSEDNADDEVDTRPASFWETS
Format: biochemical
For `Nc1ncc(C(=O)NCCCN2CCOCC2)cc1OCc1c(Cl)cccc1Cl` [Example L-177], the inhibition at 1 pM was 26%.
For `Nc1ncc(C(=O)NCc2ccc(S(N)(=O)=O)cc2)cc1OCc1c(Cl)cccc1Cl` [Example L-178], the inhibition at 1 pM was 30%.
With `CN1CCN(CCCNC(=O)c2cnc(N)c(OCc3c(Cl)cccc3Cl)c2)CC1` [Example L-179] the inhibition at 1 pM was 24%.
Compound `Nc1ncc(C(=O)NCCCO)cc1OCc1c(Cl)cccc1Cl` [Example L-180] has an inhibition at 1 pM of 26%.
Compound `Nc1ncc(C(=O)NCCN2CCOCC2)cc1OCc1c(Cl)cccc1Cl` [Example L-181] has an inhibition at 1 pM of 31%.
`Nc1ncc(C(=O)NC(CO)Cc2ccc(Cl)cc2)cc1OCc1c(Cl)cccc1Cl` [Example L-182] showed an inhibition at 1 pM of 27%.
`COc1ccccc1CNC(=O)c1cnc(N)c(OCc2c(Cl)cccc2Cl)c1` [Example L-183] gave an inhibition at 1 pM of 32%.
`Nc1ncc(C(=O)NC2CCN(Cc3ccccc3)C2)cc1OCc1c(Cl)cccc1Cl` [Example L-184] gave an inhibition at 1 pM of 27%.
For `Nc1ncc(C(=O)NCCc2c[nH]cn2)cc1OCc1c(Cl)cccc1Cl` [Example L-185], the inhibition at 1 pM was 29%.
`CN(C)c1ccc(CNC(=O)c2cnc(N)c(OCc3c(Cl)cccc3Cl)c2)cc1` [Example L-186] was tested, and the inhibition at 1 pM was 30%.
For `Nc1ncc(C(=O)NCCc2ccc(S(N)(=O)=O)cc2)cc1OCc1c(Cl)cccc1Cl` [Example L-187], the inhibition at 1 pM was 30%.
`NC(=O)C1CCCN(C(=O)c2cnc(N)c(OCc3c(Cl)cccc3Cl)c2)C1` [Example L-188] gave an inhibition at 1 pM of 39%.
For `Nc1ncc(C(=O)NC2CCSC2=O)cc1OCc1c(Cl)cccc1Cl` [Example L-189], the inhibition at 1 pM was 35%.
`CC(=O)NCCNC(=O)c1cnc(N)c(OCc2c(Cl)cccc2Cl)c1` [Example L-190] showed an inhibition at 1 pM of 35%.
`CN(C)CC(C)(C)CNC(=O)c1cnc(N)c(OCc2c(Cl)cccc2Cl)c1` [Example L-191] showed an inhibition at 1 pM of 38%.
Compound `N#CC1(c2ccccc2)CCN(C(=O)c2cnc(N)c(OCc3c(Cl)cccc3Cl)c2)CC1` [Example L-193] has an inhibition at 1 pM of 37%.
Compound `Nc1ncc(C(=O)N2CCC(O)CC2)cc1OCc1c(Cl)cccc1Cl` [Example L-194] has an inhibition at 1 pM of 35%.
Compound `Nc1ncc(C(=O)NCc2ccc(O)cc2)cc1OCc1c(Cl)cccc1Cl` [Example L-195] has an inhibition at 1 pM of 37%.
`Nc1ncc(C(=O)N2CCN(c3ccccn3)CC2)cc1OCc1c(Cl)cccc1Cl` [Example L-196] gave an inhibition at 1 pM of 34%.
Compound `Nc1ncc(C(=O)NCc2ccccc2Br)cc1OCc1c(Cl)cccc1Cl` [Example L-197] has an inhibition at 1 pM of 36%.
In the case of `COc1ccc(CNC(=O)c2cnc(N)c(OCc3c(Cl)cccc3Cl)c2)c(OC)c1` [Example L-198], the inhibition at 1 pM is reported as 59%.
For `Nc1ncc(C(=O)NCCc2ccccc2F)cc1OCc1c(Cl)cccc1Cl` [Example L-199], the inhibition at 1 pM was 33%.
`Nc1ncc(C(=O)NCc2ccccc2OC(F)(F)F)cc1OCc1c(Cl)cccc1Cl` [Example L-200] gave an inhibition at 1 pM of 31%.
`CC(C)NC(=O)CN1CCN(C(=O)c2cnc(N)c(OCc3c(Cl)cccc3Cl)c2)CC1` [Example L-201] showed an inhibition at 1 pM of 30%.
`Nc1ncc(C(=O)N2CCN(CCOCCO)CC2)cc1OCc1c(Cl)cccc1Cl` [Example L-202] was tested, and the inhibition at 1 pM was 33%.
Compound `CCN(CC)C(=O)C1CCCN(C(=O)c2cnc(N)c(OCc3c(Cl)cccc3Cl)c2)C1` [Example L-203] has an inhibition at 1 pM of 33%.
For `Nc1ncc(C(=O)N2CCN(CCO)CC2)cc1OCc1c(Cl)cccc1Cl` [Example L-204], the inhibition at 1 pM was 51%.
Work on `CN1CCN(C(=O)c2cnc(N)c(OCc3c(Cl)cccc3Cl)c2)CC1` [Example L-205] yielded an inhibition at 1 pM of 32%.
Compound `Nc1ncc(C(=O)N2CCN(CC(=O)N3CCCC3)CC2)cc1OCc1c(Cl)cccc1Cl` [Example L-206] has an inhibition at 1 pM of 32%.
For `Nc1ncc(C(=O)N2CCCCC2CCO)cc1OCc1c(Cl)cccc1Cl` [Example L-207], the inhibition at 1 pM was 33%.
`COc1ccc(C(NC(=O)c2cnc(N)c(OCc3c(Cl)cccc3Cl)c2)C2CC2)cc1` [Example L-208] showed an inhibition at 1 pM of 27%.
Work on `Nc1ncc(C(=O)N2CCN(CCCO)CC2)cc1OCc1c(Cl)cccc1Cl` [Example L-209] yielded an inhibition at 1 pM of 31%.
Compound `CC(C)(CO)CNC(=O)c1cnc(N)c(OCc2c(Cl)cccc2Cl)c1` [Example L-210] has an inhibition at 1 pM of 39%.
In the case of `Nc1ncc(C(=O)N2CCN(CC(=O)N3CCOCC3)CC2)cc1OCc1c(Cl)cccc1Cl` [Example L-211], the inhibition at 1 pM is reported as 31%.
Work on `Nc1ncc(C(=O)NCCc2c[nH]c3ccc(Cl)cc23)cc1OCc1c(Cl)cccc1Cl` [Example L-212] yielded an inhibition at 1 pM of 36%.
Compound `CC(=O)N(C)C1CCN(C(=O)c2cnc(N)c(OCc3c(Cl)cccc3Cl)c2)C1` [Example L-213] has an inhibition at 1 pM of 31%.
Work on `CC(O)CNC(=O)c1cnc(N)c(OCc2c(Cl)cccc2Cl)c1` [Example L-214] yielded an inhibition at 1 pM of 49%.
With `Cc1cnc(CNC(=O)c2cnc(N)c(OCc3c(Cl)cccc3Cl)c2)cn1` [Example L-215] the inhibition at 1 pM was 33%.
For `NC(=O)N1CCN(C(=O)c2cnc(N)c(OCc3c(Cl)cccc3Cl)c2)CC1` [Example L-216], the inhibition at 1 pM was 29%.
Work on `Nc1ncc(C(=O)NCCCN2CCCC2=O)cc1OCc1c(Cl)cccc1Cl` [Example L-217] yielded an inhibition at 1 pM of 34%.
With `CC(CCCC(C)(C)O)NC(=O)c1cnc(N)c(OCc2c(Cl)cccc2Cl)c1` [Example L-218] the inhibition at 1 pM was 35%.
Compound `Nc1ncc(C(=O)NCCc2ccc(O)cc2)cc1OCc1c(Cl)cccc1Cl` [Example L-219] has an inhibition at 1 pM of 34%.
`Nc1ncc(C(=O)NCc2ccc(F)cc2)cc1OCc1c(Cl)cccc1Cl` [Example L-220] gave an inhibition at 1 pM of 32%.
With `CN(C)CCNC(=O)c1cnc(N)c(OCc2c(Cl)cccc2Cl)c1` [Example L-221] the inhibition at 1 pM was 29%.
In the case of `CC(C)CCNC(=O)c1cnc(N)c(OCc2c(Cl)cccc2Cl)c1` [Example L-222], the inhibition at 1 pM is reported as 26%.
`Nc1ncc(C(=O)NCCc2c[nH]c3ccc(O)cc23)cc1OCc1c(Cl)cccc1Cl` [Example L-223] gave an inhibition at 1 pM of 29%.
In the case of `Nc1ncc(C(=O)NCC(F)(F)F)cc1OCc1c(Cl)cccc1Cl` [Example L-224], the inhibition at 1 pM is reported as 30%.
`CN1CCC(N(C)C(=O)c2cnc(N)c(OCc3c(Cl)cccc3Cl)c2)C1` [Example L-225] gave an inhibition at 1 pM of 33%.
With `Nc1ncc(C(=O)NCc2ccc(OC(F)(F)F)cc2)cc1OCc1c(Cl)cccc1Cl` [Example L-226] the inhibition at 1 pM was 24%.
`Nc1ncc(C(=O)N2CCC(O)C2)cc1OCc1c(Cl)cccc1Cl` [Example L-227] showed an inhibition at 1 pM of 83%.
`Nc1ncc(C(=O)NC[C@H]2CCCC[C@H]2O)cc1OCc1c(Cl)cccc1Cl` [Example L-228] showed an inhibition at 1 pM of 24%.
`Nc1ncc(C(=O)N[C@@H]2CCCC[C@H]2CO)cc1OCc1c(Cl)cccc1Cl` [Example L-229] showed an inhibition at 1 pM of 24%.
For `Nc1ncc(C(=O)N[C@@H]2c3ccccc3C[C@@H]2O)cc1OCc1c(Cl)cccc1Cl` [Example L-230], the inhibition at 1 pM was 23%.
`Nc1ncc(C(=O)N2CCC(O)(Cc3ccccc3)CC2)cc1OCc1c(Cl)cccc1Cl` [Example L-231] was tested, and the inhibition at 1 pM was 62%.
Compound `COc1cc(CCNC(=O)c2cnc(N)c(OCc3c(Cl)cccc3Cl)c2)ccc1O` [Example L-233] has an inhibition at 1 pM of 32%.
With `Nc1ncc(C(=O)NCC2COc3ccccc3O2)cc1OCc1c(Cl)cccc1Cl` [Example L-234] the inhibition at 1 pM was 34%.
`CC(NC(=O)c1cnc(N)c(OCc2c(Cl)cccc2Cl)c1)c1ccc(O)cc1` [Example L-235] was tested, and the inhibition at 1 pM was 36%.
`Nc1ncc(C(=O)N2CCCC(O)C2)cc1OCc1c(Cl)cccc1Cl` [Example L-236] was tested, and the inhibition at 1 pM was 33%.
Compound `CN(CC#N)C(=O)c1cnc(N)c(OCc2c(Cl)cccc2Cl)c1` [Example L-237] has an inhibition at 1 pM of 30%.
In the case of `CC(O)CCNC(=O)c1cnc(N)c(OCc2c(Cl)cccc2Cl)c1` [Example L-238], the inhibition at 1 pM is reported as 35%.
Work on `Nc1ncc(C(=O)NCCO)cc1OCc1c(Cl)cccc1Cl` [Example L-239] yielded an inhibition at 1 pM of 34%.
For `Nc1ncc(C(=O)NCCc2ccncc2)cc1OCc1c(Cl)cccc1Cl` [Example L-240], the inhibition at 1 pM was 30%.
`CCCC(CO)NC(=O)c1cnc(N)c(OCc2c(Cl)cccc2Cl)c1` [Example L-241] showed an inhibition at 1 pM of 30%.
In the case of `Nc1ncc(C(=O)NCCOc2ccccc2)cc1OCc1c(Cl)cccc1Cl` [Example L-242], the inhibition at 1 pM is reported as 66%.
`C[C@@H]1CN(C(=O)c2cnc(N)c(OCc3c(Cl)cccc3Cl)c2)C[C@H](C)O1` [Example L-243] showed an inhibition at 1 pM of 32%.
With `CN(C)C1CCN(C(=O)c2cnc(N)c(OCc3c(Cl)cccc3Cl)c2)C1` [Example L-244] the inhibition at 1 pM was 33%.
`Nc1ncc(C(=O)NCc2ccc(F)cc2F)cc1OCc1c(Cl)cccc1Cl` [Example L-245] gave an inhibition at 1 pM of 33%.
`CN(CCC(O)c1ccccc1)C(=O)c1cnc(N)c(OCc2c(Cl)cccc2Cl)c1` [Example L-246] showed an inhibition at 1 pM of 28%.
Work on `COc1cc(CCNC(=O)c2cnc(N)c(OCc3c(Cl)cccc3Cl)c2)cc(OC)c1O` [Example L-247] yielded an inhibition at 1 pM of 25%.
`COCCN1CCN(C(=O)c2cnc(N)c(OCc3c(Cl)cccc3Cl)c2)CC1` [Example L-248] gave an inhibition at 1 pM of 27%.
In the case of `Nc1ncc(C(=O)NCc2cccc(OC(F)F)c2)cc1OCc1c(Cl)cccc1Cl` [Example L-249], the inhibition at 1 pM is reported as 32%.
`Nc1ncc(C(=O)NCc2ccc(F)cc2Cl)cc1OCc1c(Cl)cccc1Cl` [Example L-250] was tested, and the inhibition at 1 pM was 37%.
Compound `Nc1ncc(C(=O)NCC(O)c2ccc(O)cc2)cc1OCc1c(Cl)cccc1Cl` [Example L-251] has an inhibition at 1 pM of 29%.
In the case of `Nc1ncc(C(=O)N2CCC(C(=O)c3ccccc3)CC2)cc1OCc1c(Cl)cccc1Cl` [Example L-252], the inhibition at 1 pM is reported as 32%.
With `NC(=O)CCNC(=O)c1cnc(N)c(OCc2c(Cl)cccc2Cl)c1` [Example L-253] the inhibition at 1 pM was 28%.
With `CC(CN(C)C)NC(=O)c1cnc(N)c(OCc2c(Cl)cccc2Cl)c1` [Example L-254] the inhibition at 1 pM was 45%.
With `CCCOCCNC(=O)c1cnc(N)c(OCc2c(Cl)cccc2Cl)c1` [Example L-255] the inhibition at 1 pM was 45%.
Work on `CC(C)OCCNC(=O)c1cnc(N)c(OCc2c(Cl)cccc2Cl)c1` [Example L-256] yielded an inhibition at 1 pM of 46%.

Same assay, conditions: read-out: % Inhibition (percent c-MET inhibition)
Work on `CCC(=O)C(c1ccccc1)C1CCN(C(=O)c2cnc(N)c(OCc3c(Cl)cccc3Cl)c2)CC1` [Example L-192] yielded an inhibition at 1 pM of 44%.
In the case of `Nc1ncc(C(=O)N2CCC(=O)CC2)cc1OCc1c(Cl)cccc1Cl` [Example L-232], the inhibition at 1 pM is reported as 44%.
